One data set relates to human tumor xenografts. The following applies: cited from earlier work.
For data set [1], the system named is human colon cancer xenografts. The note with it: in vivo; cited from earlier work.
A further data set has as its target T1, DNA topoisomerase I (Homo sapiens, UniProt P11387).
T1 sequence (P11387 1-765): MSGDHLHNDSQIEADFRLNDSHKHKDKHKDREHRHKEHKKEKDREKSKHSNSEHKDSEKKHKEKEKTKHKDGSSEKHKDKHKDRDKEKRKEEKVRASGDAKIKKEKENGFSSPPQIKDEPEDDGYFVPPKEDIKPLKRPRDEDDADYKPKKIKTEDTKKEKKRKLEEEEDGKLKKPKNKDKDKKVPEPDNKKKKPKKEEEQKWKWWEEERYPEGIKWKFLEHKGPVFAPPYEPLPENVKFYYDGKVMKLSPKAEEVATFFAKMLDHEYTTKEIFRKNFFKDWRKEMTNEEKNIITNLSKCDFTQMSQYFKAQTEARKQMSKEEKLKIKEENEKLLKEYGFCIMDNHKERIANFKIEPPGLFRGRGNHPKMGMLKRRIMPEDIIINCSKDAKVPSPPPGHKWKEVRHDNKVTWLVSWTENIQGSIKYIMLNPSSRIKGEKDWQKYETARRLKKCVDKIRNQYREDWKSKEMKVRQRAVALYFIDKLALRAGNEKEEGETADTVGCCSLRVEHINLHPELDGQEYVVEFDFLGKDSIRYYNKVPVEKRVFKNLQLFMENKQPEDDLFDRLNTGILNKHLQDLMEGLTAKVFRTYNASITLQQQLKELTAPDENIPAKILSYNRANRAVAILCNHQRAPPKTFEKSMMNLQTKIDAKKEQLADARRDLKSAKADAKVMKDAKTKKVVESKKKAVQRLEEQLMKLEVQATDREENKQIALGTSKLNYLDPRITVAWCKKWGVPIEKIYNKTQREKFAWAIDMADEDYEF
The following applies: by stabilizing the cleavable complex; cited from earlier work.

The conditions of data set [2]: cited from earlier work.
For data set [3] the following is noted: for Hygroscopicity: from moisture sorption 5 to 95% RH; for Weight % chg: 25 deg C. As to the method: Moisture sorption/desorption data were collected on a VTI SGA-100 moisture balance system. […] The samples were not dried prior to analysis. Equilibrium criteria used for analysis were less than 0.0100 weight % change in 5 minutes with a maximum equilibration time of 3 hours if the weight criterion was not met. Data were not corrected for the initial moisture content of the samples.

For data set [4] the following is noted: ground in an amalgamator for 10 minutes.
For data set [5] the following is noted: closed vial, 31 days, ambient conditions.
How the values of data set [6] were obtained:
Dehydration/desolvation studies were conducted by placing a sample under continuous vacuum at room temperature for 14 days. An XRPD pattern was obtained on the remaining solid and compared to the starting material.

For data set [7] the following is noted: cited from earlier work. The source holds these as a separate data set.

Read-outs that look alike come from different tables or passages of the source.

In the case of `CC[C@@]1(O)C(=O)OCc2c1cc1n(c2=O)Cc2cc3c([N+](=O)[O-])cccc3nc2-1` [9-nitrocamptothecin, 9-nitro-20(S)-camptothecin], the “Growth of human tumor xenografts” value in the data set with human tumor xenografts (immunodeficient nude mice) is on record as “inhibited the growth”. Also, in the data set with human tumor xenografts (mouse, in vivo), the “Activity against human tumor xenograft models” value was “high activity”. In addition, in the data set with human tumor xenografts (xenografts in nude mice), the “Regression of established human tumors” value was “induced regression”.
Turning to `CC[C@@]1(O)C(=O)OCc2c1cc1n(c2=O)Cc2cc3cc4c(cc3nc2-1)OCO4` [10,11,MD, 10,11-methylendioxy-20(S)-camptothecin], the “Anticancer activity against human colon cancer xenografts” value in data set [1] is reported as “high anticancer activity”.
In the case of `CC[C@@]1(O)C(=O)OCc2c1cc1n(c2=O)Cc2cc3ccccc3nc2-1` [Camptothecin], on DNA topoisomerase I, the “Inhibition of DNA topoisomerase I” value is “inhibit DNA topoisomerase I”. For the same molecule, the Water solubility result in data set [2] is recorded as “poorly water soluble”.
With `CC[C@@]1(O)C(=O)OCc2c1cc1n(c2=O)Cc2cc3c(N)cccc3nc2-1` [Form 9AC, 9-Amino-20(S)-Camptothecin], in data set [1], the “Anticancer activity against human colon cancer xenografts” value was “high anticancer activity”.
In the case of `CC[C@@]1(O)C(=O)OCc2c1cc1n(c2=O)Cc2cc3c([N+](=O)[O-])cccc3nc2-1` [Form A, 9-nitro-20(S)-camptothecin], the Hygroscopicity entry in data set [3] is “not hygroscopic”. Moreover, the “Change of crystallinity on grinding (XRPD)” value in data set [4] is “losing crystallinity after grinding”.
On to `CC[C@@]1(O)C(=O)OCc2c1cc1n(c2=O)Cc2cc3c([N+](=O)[O-])cccc3nc2-1` [Form B, 9-nitro-20(S)-camptothecin], for which, in data set [5], the “Stability of the crystalline polymorph on storage (XRPD pattern)” value is recorded as “relatively stable”. In addition, the “Total weight gained in the region from 5 to 95% RH” value in data set [3] (5 to 95% RH) amounted to 2.21%. Also, the Weight % chg in [3] (desorption, about 5% RH) is given as −1.0408%; in data set [3] (desorption, about 15% RH), −0.5118%; in [3] (desorption, about 25% RH) it was −0.1151%; in data set [3] (desorption, about 35% RH) it was 0.1861%; in data set [3] (desorption, about 45% RH), 0.4359%; in data set [3] (desorption, about 55% RH) it was 0.6637%. For the same molecule, the Weight % chg is on record as 0.8473% in data set [3] (desorption, about 65% RH); 1.0310% in data set [3] (desorption, about 75% RH); 1.1706% in data set [3] (desorption, about 85% RH); −0.9820% in [3] (sorption, about 5% RH); −0.4898% in [3] (sorption, about 15% RH); −0.1151% in [3] (sorption, about 25% RH). Further, the Weight % chg turned out to be 0.1788% in [3] (sorption, about 35% RH); 0.4286% in data set [3] (sorption, about 45% RH); 0.6416% in data set [3] (sorption, about 55% RH); 0.8314% in data set [3] (sorption, about 65% RH); 0.9869% in [3] (sorption, about 75% RH); 1.1118% in data set [3] (sorption, about 85% RH). For the same molecule, the Weight % chg in data set [3] (sorption, about 95% RH) stood at 1.2293%; in data set [3] (start, elapsed time 0.0 min), 0.0000%. Also, the “Water lost upon equilibration at 5% RH” value in data set [3] (equilibration at 5% RH) was 0.98%. Also, in [3], the Hygroscopicity result was “relatively hygroscopic”.
`CC[C@@]1(O)C(=O)OCc2c1cc1n(c2=O)Cc2cc3c([N+](=O)[O-])cccc3nc2-1` [Form C, 9-nitro-20(S)-camptothecin]: the “Change of form on desolvation under vacuum” value in data set [6] is listed as “becomes amorphous”.
Take `CC[C@@](O)(C(=O)[O-])c1cc2n(c(=O)c1CO)Cc1cc3ccccc3nc1-2.[Na+]` [Sodium camptothecin]: the “Side effects in clinical trials” value in data set [7] (administered intravenously) is “myelosuppression and hemorrhagic cystitis”. Also, the “Antineoplastic activity in clinical trials” value in data set [7] (solubilized by sodium hydroxide in water, early 1970's trials) is “found to have antineoplastic activity”.

These data come from US6482830B1 (SuperGen, Inc., priority 2002, dated 2002).
